Experimental data taken from patent publication US11167059B2, “Compositions with reactive ingredients, and wound dressings, apparatuses, and methods” (KCI Licensing, Inc., priority 2010, dated 2021).

What was measured:
Type in all cases: cell-based
[1] = test system: MRSA; experiment: Log reduction, single cycle, MRSA; settings: for ΔLog - MRSA 30 sec.: 30 sec. exposure; for ΔLog - MRSA 5 min.: 5 min. exposure
Procedure: (§1) Referring now to FIG. 17, the experiments described above for FIG. 14 were also performed with additional foams, one foam in which 1 gram of Calcium hypochlorite salt was infused (D100, shown as left column for each cycle), and one foam in which 2 grams of Calcium hypochlorite salt was dispersed (D200, shown as right column for each cycle). […] As discussed additionally below, the minimum concentration is significant because testing identified concentrations of hypochlorite-ion as low as 0.5-0.7 mM to have effective antibacterial and antimicrobial properties. Additional testing was performed to measure the zone of inhibition (ZOI) and Log Reduction of microbes for various samples of released aqueous solutions having various concentrations of hypochlorite ion, as listed in Tables 2 and 3. Table 2 lists ZOI and Log reduction data for a single cycle measured at hold times (exposure duration) of 30 seconds and 5 minutes of bacterial exposure to solution. Table 3 lists ZOI and Log reduction data for multiple cycles (each cycle including introduction of hypochlorite solution, and removal of solution prior to beginning next cycle). In the ZOI experimentation, foam discs having a diameter of 8 millimeters (mm) and a height of 5 mm were each saturated with hypochlorite-ion solution as indicated. Table 3 also lists the initial microbe count in log form (10^X, where X is listed in Table 2), log reduction in microbe count, and ZOI in mm. For the data of Table 3, the initial concentration (1×) of hypochlorite ion in solution was 5.7 mM of hypochlorite ion, which corresponds to 0.041% w/v of Ca(OCl)^2. In the Log reduction experimentation, the microbes were exposed to the respective concentration of solution for 30 seconds per cycle. […] The bold entries in Table 3 are indicative of substantially all microbes being killed. In the biofilm eradication cycles listed in Table 6 below, probes were cultured with microbes and incubated to permit formation of a biofilm on the probe. The probe was then exposed to solutions having various concentrations of Calcium hypochlorite solution for multiple cycles, with each cycle including exposure of the probe to solution for a duration of 5 minutes.

[2] = test system: C. alb.; experiment: Log reduction, single cycle, C. alb.; settings: for ΔLog - C. alb. 30 sec.: 30 sec. exposure; for ΔLog - C. alb. 5 min.: 5 min. exposure
Procedure: as §1

[3] = test system: MRSA; experiment: zone of inhibition (ZOI), foam discs saturated with solution, MRSA; settings: 8 mm foam disc saturated with solution
Procedure: as §1

[4] = test system: C. alb.; experiment: zone of inhibition (ZOI), foam discs saturated with solution, C. alb.; settings: 8 mm foam disc saturated with solution
Procedure: as §1

[5] = test system: Pseudomonas aeruginosa ATCC 27853; experiment: Log reduction, multiple cycles, P. aeruginosa; settings: 30 seconds per cycle
Procedure: as §1

[6] = test system: Staphylococcus aureus USA 400 (MRSA); experiment: Log reduction, multiple cycles, S. aureus USA 400 (MRSA); settings: 30 seconds per cycle
Procedure: as §1

[7] = test system: Pseudomonas aeruginosa ATCC 27853; experiment: Minimum Inhibitory Concentration (MIC), P. aeruginosa; settings: % w/v Ca(OCl)2 in water
[8] = test system: Staphylococcus aureus ATCC 10832; experiment: Minimum Inhibitory Concentration (MIC), S. aureus ATCC 10832; settings: % w/v Ca(OCl)2 in water
[9] = test system: Staphylococcus aureus ATCC 10832; experiment: Minimum Bactericidal Concentration (MBC), S. aureus ATCC 10832; settings: % w/v Ca(OCl)2 in water
Procedure: as §1, with “The probe was then exposed to solutions having various concentrations of Calcium hypochlorite solution for multiple cycles, with each cycle including exposure of the probe to solution for a duration of 5 minutes.” left out

[10] = test system: Pseudomonas aeruginosa ATCC 27853; experiment: Minimum Biofilm Eradication Concentration (MBEC), P. aeruginosa; settings: Pseudomonas aeruginosa ATCC 27853 biofilm on probe, 5 minutes per cycle, % w/v Ca(OCl)2
Procedure: as §1, with “The probe was then exposed to solutions having various concentrations of Calcium hypochlorite solution for multiple cycles, with each cycle including exposure of the probe to solution for a duration of 5 minutes.” left out

[11] = test system: Staphylococcus aureus ATCC 10832; experiment: Minimum Biofilm Eradication Concentration (MBEC), S. aureus ATCC 10832; settings: Staphylococcus aureus ATCC 10832 biofilm on probe, 5 minutes per cycle, % w/v Ca(OCl)2
Procedure: as §1, with “The probe was then exposed to solutions having various concentrations of Calcium hypochlorite solution for multiple cycles, with each cycle including exposure of the probe to solution for a duration of 5 minutes.” left out

[12] = test system: microbes; experiment: antibacterial and antimicrobial testing of hypochlorite-ion concentrations (summary statements)
Procedure: Referring now to FIG. 17, the experiments described above for FIG. 14 were also performed with additional foams, one foam in which 1 gram of Calcium hypochlorite salt was infused (D100, shown as left column for each cycle), and one foam in which 2 grams of Calcium hypochlorite salt was dispersed (D200, shown as right column for each cycle). […] As discussed additionally below, the minimum concentration is significant because testing identified concentrations of hypochlorite-ion as low as 0.5-0.7 mM to have effective antibacterial and antimicrobial properties. Additional testing was performed to measure the zone of inhibition (ZOI) and Log Reduction of microbes for various samples of released aqueous solutions having various concentrations of hypochlorite ion, as listed in Tables 2 and 3. Table 2 lists ZOI and Log reduction data for a single cycle measured at hold times (exposure duration) of 30 seconds and 5 minutes of bacterial exposure to solution. Table 3 lists ZOI and Log reduction data for multiple cycles (each cycle including introduction of hypochlorite solution, and removal of solution prior to beginning next cycle). In the ZOI experimentation, foam discs having a diameter of 8 millimeters (mm) and a height of 5 mm were each saturated with hypochlorite-ion solution as indicated. […]

[13] = Sample Dilution 1x (5.7 mM hypochlorite ion, 0.041% w/v Ca(OCl)2)
[14] = Sample Dilution 2x of 5.7 mM hypochlorite ion
[15] = Sample Dilution 4x of 5.7 mM hypochlorite ion
[16] = Sample Dilution 8x of 5.7 mM hypochlorite ion (lowest concentration, 0.7 mM)

## hypochlorite ion [OCl^− Solutions]
[1]; 0.8 mM HOCl/OCl−
  ΔLog - MRSA 30 sec.: 2.96
  ΔLog - MRSA 5 min.: 2.99
[1]; 1.9 mM HOCl/OCl−
  ΔLog - MRSA 30 sec.: 2.93
  ΔLog - MRSA 5 min.: 4.09
[1]; 3.1 mM HOCl/OCl−
  ΔLog - MRSA 30 sec.: 3.55
  ΔLog - MRSA 5 min.: >7.13
[1]; 4.0 mM HOCl/OCl−
  ΔLog - MRSA 30 sec.: 5.52
  ΔLog - MRSA 5 min.: >7.13
[1]; 10.7 mM HOCl/OCl−
  ΔLog - MRSA 30 sec.: >6.93
  ΔLog - MRSA 5 min.: >7.13
[1]; 15.7 mM HOCl/OCl−
  ΔLog - MRSA 30 sec.: >6.93
  ΔLog - MRSA 5 min.: >7.13
[2]; 0.8 mM HOCl/OCl−
  ΔLog - C. alb. 30 sec.: 2.87
  ΔLog - C. alb. 5 min.: >7.18
[2]; 1.9 mM HOCl/OCl−
  ΔLog - C. alb. 30 sec.: 2.94
  ΔLog - C. alb. 5 min.: 3.77
[2]; 3.1 mM HOCl/OCl−
  ΔLog - C. alb. 30 sec.: 3.08
  ΔLog - C. alb. 5 min.: >7.18
[2]; 4.0 mM HOCl/OCl−
  ΔLog - C. alb. 30 sec.: 3.94
  ΔLog - C. alb. 5 min.: >7.18
[2]; 10.7 mM HOCl/OCl−
  ΔLog - C. alb. 30 sec.: 7.18
  ΔLog - C. alb. 5 min.: >7.18
[2]; 15.7 mM HOCl/OCl−
  ΔLog - C. alb. 30 sec.: 3.50
  ΔLog - C. alb. 5 min.: >7.18
[3]; 0.8 mM HOCl/OCl−
  ZOI, D in mm MRSA: 0.0 mm
[3]; 1.9 mM HOCl/OCl−
  ZOI, D in mm MRSA: 0.0 mm
[3]; 3.1 mM HOCl/OCl−
  ZOI, D in mm MRSA: 0.0 mm
[3]; 4.0 mM HOCl/OCl−
  ZOI, D in mm MRSA: 0.0 mm
[3]; 10.7 mM HOCl/OCl−
  ZOI, D in mm MRSA: 13.0 mm
[3]; 15.7 mM HOCl/OCl−
  ZOI, D in mm MRSA: 13.0 mm
[4]; 0.8 mM HOCl/OCl−
  ZOI, D in mm C. alb.: 15.0 mm
[4]; 1.9 mM HOCl/OCl−
  ZOI, D in mm C. alb.: 24.3 mm
[4]; 3.1 mM HOCl/OCl−
  ZOI, D in mm C. alb.: 22.0 mm
[4]; 4.0 mM HOCl/OCl−
  ZOI, D in mm C. alb.: 34.3 mm
[4]; 10.7 mM HOCl/OCl−
  ZOI, D in mm C. alb.: 45.7 mm
[4]; 15.7 mM HOCl/OCl−
  ZOI, D in mm C. alb.: 44.3 mm
[5]; [13]
  Log Reduction Pseudomonas aeruginosa ATCC 27853 1 Cycle: −0.16
  Log Reduction Pseudomonas aeruginosa ATCC 27853 3 Cycles: 5.87
  Log Reduction Pseudomonas aeruginosa ATCC 27853 5 Cycles: 5.83
[5]; [14]
  Log Reduction Pseudomonas aeruginosa ATCC 27853 1 Cycle: −0.98
  Log Reduction Pseudomonas aeruginosa ATCC 27853 3 Cycles: 5.87
  Log Reduction Pseudomonas aeruginosa ATCC 27853 5 Cycles: 5.83
[5]; [15]
  Log Reduction Pseudomonas aeruginosa ATCC 27853 1 Cycle: −0.48
  Log Reduction Pseudomonas aeruginosa ATCC 27853 3 Cycles: 3.92
  Log Reduction Pseudomonas aeruginosa ATCC 27853 5 Cycles: 5.83
[5]; [16]
  Log Reduction Pseudomonas aeruginosa ATCC 27853 1 Cycle: −1.11
  Log Reduction Pseudomonas aeruginosa ATCC 27853 3 Cycles: 1.26
  Log Reduction Pseudomonas aeruginosa ATCC 27853 5 Cycles: 5.39
[6]; [13]
  Log Reduction Staphylococcus aureus USA 400 (MRSA) 1 Cycle: 4.15
  Log Reduction Staphylococcus aureus USA 400 (MRSA) 3 Cycles: 3.63
  Log Reduction Staphylococcus aureus USA 400 (MRSA) 5 Cycles: 3.91
[6]; [14]
  Log Reduction Staphylococcus aureus USA 400 (MRSA) 1 Cycle: 4.15
  Log Reduction Staphylococcus aureus USA 400 (MRSA) 3 Cycles: 3.63
  Log Reduction Staphylococcus aureus USA 400 (MRSA) 5 Cycles: 3.91
[6]; [15]
  Log Reduction Staphylococcus aureus USA 400 (MRSA) 1 Cycle: 4.15
  Log Reduction Staphylococcus aureus USA 400 (MRSA) 3 Cycles: 3.63
  Log Reduction Staphylococcus aureus USA 400 (MRSA) 5 Cycles: 3.91
[6]; [16]
  Log Reduction Staphylococcus aureus USA 400 (MRSA) 1 Cycle: 4.15
  Log Reduction Staphylococcus aureus USA 400 (MRSA) 3 Cycles: 3.63
  Log Reduction Staphylococcus aureus USA 400 (MRSA) 5 Cycles: 3.91
[7]; 1 Cycle
  Minimum Inhibitory Concentration (MIC) 1 Cycle: <0.005% w/v
[7]; 3 Cycles
  Minimum Inhibitory Concentration (MIC) 3 Cycles: <0.005% w/v
[7]; 5 Cycles
  Minimum Inhibitory Concentration (MIC) 5 Cycles: <0.005% w/v
[8]; 1 Cycle
  Minimum Inhibitory Concentration (MIC) 1 Cycle: <0.005% w/v
[8]; 3 Cycles
  Minimum Inhibitory Concentration (MIC) 3 Cycles: <0.005% w/v
[8]; 5 Cycles
  Minimum Inhibitory Concentration (MIC) 5 Cycles: <0.005% w/v
[9]; 1 Cycle
  Minimum Bactericidal Concentration (MBC) 1 Cycle: <0.005% w/v
[9]; 3 Cycles
  Minimum Bactericidal Concentration (MBC) 3 Cycles: <0.005% w/v
[9]; 5 Cycles
  Minimum Bactericidal Concentration (MBC) 5 Cycles: <0.005% w/v
[10]; 1 Cycle
  Minimum Biofilm Eradication Concentration (MBEC) 1 Cycle: >0.041% w/v
[10]; 3 Cycles
  Minimum Biofilm Eradication Concentration (MBEC) 3 Cycles: 0.021% w/v
[10]; 5 Cycles
  Minimum Biofilm Eradication Concentration (MBEC) 5 Cycles: 0.041% w/v
[11]; 1 Cycle
  Minimum Biofilm Eradication Concentration (MBEC) 1 Cycle: <0.005% w/v
[11]; 3 Cycles
  Minimum Biofilm Eradication Concentration (MBEC) 3 Cycles: <0.005% w/v
[11]; 5 Cycles
  Minimum Biofilm Eradication Concentration (MBEC) 5 Cycles: <0.005% w/v
[12]
  lowest concentrations identified to have effective antibacterial and antimicrobial properties: 0.5 to 0.7 mM
[12]; five (5) cycles at the lowest concentration (0.7 mM), 30 seconds per cycle
  killing of microbes in Log reduction experimentation: killed substantially all microbes present
